Key:
Assay in all cases: Post-emergence test on weeds (greenhouse, spray at 2-3 leaf stage)
Type in all cases: in vivo
Set-up in all cases: key: Level 10: completely dead; Level 9: growth control rate greater than or equal to 90% and less than 100%; Level 8: growth control rate greater than or equal to 80% and less than 90%; Level 7: growth control rate greater than or equal to 70% and less than 80%; Level 6: growth control rate greater than or equal to 60% and less than 70%; Level 5: growth control rate greater than or equal to 50% and less than 60%; Level 4: growth control rate greater than or equal to 40% and less than 50%; Level 3: growth control rate greater than or equal to 30% and less than 40%; Level 2: growth control rate greater than or equal to 20% and less than 30%; Level 1: growth control rate less than 20%; Level 0: no effect
Conditions in all cases: 3 weeks after application
Setaria viridis = tested on: Setaria viridis
Excerpt: (§1) The activity level criteria for plant damage (i.e., growth control rate) are as follows: • Level 10: completely dead; • Level 9: growth control rate greater than or equal to 90% and less than 100%; • Level 8: growth control rate greater than or equal to 80% and less than 90%; • Level 7: growth control rate greater than or equal to 70% and less than 80%; • Level 6: growth control rate greater than or equal to 60% and less than 70%; • Level 5: growth control rate greater than or equal to 50% and less than 60%; • Level 4: growth control rate greater than or equal to 40% and less than 50%; • Level 3: growth control rate greater than or equal to 30% and less than 40%; • Level 2: growth control rate greater than or equal to 20% and less than 30%; • Level 1: growth control rate less than 20%; • Level 0: no effect.
(§2) The above growth control rates are fresh weight control rates.
(§3) Monocotyledonous and dicotyledonous weed seeds (Descurainia sophia, Capsella bursa-pastoris, Abutilon theophrasti, Galium spurium, Stellaria media, Lithospermum arvense, Rorippa indica, Alopecurus aequalis, Alopecurus japonicus, Eleusine indica, Beckmannia syzigachne, Sclerochloa dura, Erigeron canadensis, Phleum paniculatum, Veronica polita, Bromus japonicus, Aegilops tauschii, Phalaris arundinacea, Amaranthus retrofexus, Chenopodium, Commelina communis, Cichorium endivia, Convolvulus arvensis, Cirsium arvense, Solanum nigrum, Acalypha australis, Digitaria sanguinalis, Echinochloa crus-galli, Setaria viridis, Setaa pumila, Lepochloa chinensis, Monochona vaginalis, Sagitta trifolia, Schoenoplectiella juncoides, Cypenus rotundus, Cyperus ira, Cyperus difformis, Fimbristylis, Portulaca oleracea, Xanthium sibiricum, Ipomoea nil, Eschenbachia japonica, etc.) and major crop seeds (wheat, maize, paddy rice, soybean, cotton, oilseed rape, millet, sorghum, potato, sesame, castor plant, etc.) were placed in plastic pots filled with soil and then covered with 0.5-2 cm of soil to allow them to grow in a favorable greenhouse environment. Two weeks after sowing, the test plants were treated at the stage of 2-3 leaves. The test compounds of the present invention were individually dissolved with acetone, then added with Tween® 80, with 1.5 L/ha of methyl oleate emulsifiable concentrate as a synergist, diluted into solutions of certain concentrations using certain amount of water, and sprayed to the plants using a spray tower. After drug application, the experimental results on weeds were collected after 3 weeks of cultivation in a greenhouse. The compounds were applied at 500, 250, […], 15, and 7.5 g a.i./ha in triplicate, and the results were averaged.

Digitaria sanguinalis = tested on: Digitaria sanguinalis
Excerpt: as §1, §2, §3

Veronica polita = tested on: Veronica polita
Excerpt: as §1, §2, §3

Amaranthus retroflexus = tested on: Amaranthus retroflexus
Excerpt: as §1, §2, §3

Abutilon theophrasti = tested on: Abutilon theophrasti
Excerpt: as §1, §2, §3

Echinochloa crus-galli = tested on: Echinochloa crus-galli
Excerpt: as §1, §2, §3

COC(=O)C1(C)ON=C(c2cc(-c3ncc(C)cc3Cl)c(F)cc2Cl)O1 (stereo not drawn) [Compound 12]
10: activity level (fresh weight growth control rate), Setaria viridis (Setaria viridis; 60 g a.i./ha) | activity level (fresh weight growth control rate), Digitaria sanguinalis (Digitaria sanguinalis; 60 g a.i./ha) | activity level (fresh weight growth control rate), Veronica polita (Veronica polita; 60 g a.i./ha) | activity level (fresh weight growth control rate), Amaranthus retroflexus (Amaranthus retroflexus; 60 g a.i./ha) | activity level (fresh weight growth control rate), Abutilon theophrasti (Abutilon theophrasti; 60 g a.i./ha) | activity level (fresh weight growth control rate), Echinochloa crus-galli (Echinochloa crus-galli; 60 g a.i./ha)

COC(=O)C1(C)ON=C(c2cc(-c3ncc(Cl)cc3F)c(F)cc2Cl)O1 (stereo not drawn) [Compound 13]
10: activity level (fresh weight growth control rate), Setaria viridis (Setaria viridis; 60 g a.i./ha) | activity level (fresh weight growth control rate), Digitaria sanguinalis (Digitaria sanguinalis; 60 g a.i./ha) | activity level (fresh weight growth control rate), Veronica polita (Veronica polita; 60 g a.i./ha) | activity level (fresh weight growth control rate), Amaranthus retroflexus (Amaranthus retroflexus; 60 g a.i./ha) | activity level (fresh weight growth control rate), Abutilon theophrasti (Abutilon theophrasti; 60 g a.i./ha) | activity level (fresh weight growth control rate), Echinochloa crus-galli (Echinochloa crus-galli; 60 g a.i./ha)

COC(=O)C1(C)ON=C(c2cc(-c3ncc(F)cc3Cl)c(F)cc2Cl)O1 (stereo not drawn) [Compound 14]
10: activity level (fresh weight growth control rate), Setaria viridis (Setaria viridis; 60 g a.i./ha) | activity level (fresh weight growth control rate), Digitaria sanguinalis (Digitaria sanguinalis; 60 g a.i./ha) | activity level (fresh weight growth control rate), Veronica polita (Veronica polita; 60 g a.i./ha) | activity level (fresh weight growth control rate), Amaranthus retroflexus (Amaranthus retroflexus; 60 g a.i./ha) | activity level (fresh weight growth control rate), Abutilon theophrasti (Abutilon theophrasti; 60 g a.i./ha) | activity level (fresh weight growth control rate), Echinochloa crus-galli (Echinochloa crus-galli; 60 g a.i./ha)

COC(=O)C1(C)ON=C(c2cc(-c3ncc(C(F)(F)F)cc3Cl)c(F)cc2Cl)O1 (stereo not drawn) [Compound 15]
10: activity level (fresh weight growth control rate), Setaria viridis (Setaria viridis; 15 g a.i./ha) | activity level (fresh weight growth control rate), Digitaria sanguinalis (Digitaria sanguinalis; 15 g a.i./ha) | activity level (fresh weight growth control rate), Veronica polita (Veronica polita; 15 g a.i./ha) | activity level (fresh weight growth control rate), Amaranthus retroflexus (Amaranthus retroflexus; 15 g a.i./ha) | activity level (fresh weight growth control rate), Abutilon theophrasti (Abutilon theophrasti; 15 g a.i./ha) | activity level (fresh weight growth control rate), Echinochloa crus-galli (Echinochloa crus-galli; 15 g a.i./ha)

CCC1(C(=O)OC)ON=C(c2cc(-c3ncc(Cl)cc3F)c(F)cc2Cl)O1 (stereo not drawn) [Compound 16]
10: activity level (fresh weight growth control rate), Setaria viridis (Setaria viridis; 60 g a.i./ha) | activity level (fresh weight growth control rate), Digitaria sanguinalis (Digitaria sanguinalis; 60 g a.i./ha) | activity level (fresh weight growth control rate), Veronica polita (Veronica polita; 60 g a.i./ha) | activity level (fresh weight growth control rate), Amaranthus retroflexus (Amaranthus retroflexus; 60 g a.i./ha) | activity level (fresh weight growth control rate), Abutilon theophrasti (Abutilon theophrasti; 60 g a.i./ha) | activity level (fresh weight growth control rate), Echinochloa crus-galli (Echinochloa crus-galli; 60 g a.i./ha)

CCC1(C(=O)OC)ON=C(c2cc(-c3ncc(C(F)(F)F)cc3Cl)c(F)cc2Cl)O1 (stereo not drawn) [Compound 17]
10: activity level (fresh weight growth control rate), Setaria viridis (Setaria viridis; 60 g a.i./ha) | activity level (fresh weight growth control rate), Digitaria sanguinalis (Digitaria sanguinalis; 60 g a.i./ha) | activity level (fresh weight growth control rate), Veronica polita (Veronica polita; 60 g a.i./ha) | activity level (fresh weight growth control rate), Amaranthus retroflexus (Amaranthus retroflexus; 60 g a.i./ha) | activity level (fresh weight growth control rate), Abutilon theophrasti (Abutilon theophrasti; 60 g a.i./ha) | activity level (fresh weight growth control rate), Echinochloa crus-galli (Echinochloa crus-galli; 60 g a.i./ha)

CCC1(C(=O)OC)ON=C(c2cc(-c3ncc(C(F)(F)F)cc3F)c(F)cc2Cl)O1 (stereo not drawn) [Compound 19]
10: activity level (fresh weight growth control rate), Setaria viridis (Setaria viridis; 60 g a.i./ha) | activity level (fresh weight growth control rate), Digitaria sanguinalis (Digitaria sanguinalis; 60 g a.i./ha) | activity level (fresh weight growth control rate), Veronica polita (Veronica polita; 60 g a.i./ha) | activity level (fresh weight growth control rate), Amaranthus retroflexus (Amaranthus retroflexus; 60 g a.i./ha) | activity level (fresh weight growth control rate), Abutilon theophrasti (Abutilon theophrasti; 60 g a.i./ha) | activity level (fresh weight growth control rate), Echinochloa crus-galli (Echinochloa crus-galli; 60 g a.i./ha)

CCCC1(C(=O)OC)ON=C(c2cc(-c3ncc(C(F)(F)F)cc3Cl)c(F)cc2Cl)O1 (stereo not drawn) [Compound 20]
10: activity level (fresh weight growth control rate), Setaria viridis (Setaria viridis; 60 g a.i./ha) | activity level (fresh weight growth control rate), Digitaria sanguinalis (Digitaria sanguinalis; 60 g a.i./ha) | activity level (fresh weight growth control rate), Veronica polita (Veronica polita; 60 g a.i./ha) | activity level (fresh weight growth control rate), Amaranthus retroflexus (Amaranthus retroflexus; 60 g a.i./ha) | activity level (fresh weight growth control rate), Abutilon theophrasti (Abutilon theophrasti; 60 g a.i./ha) | activity level (fresh weight growth control rate), Echinochloa crus-galli (Echinochloa crus-galli; 60 g a.i./ha)

COC(=O)C1(C2CC2)ON=C(c2cc(-c3ncc(Cl)cc3F)c(F)cc2Cl)O1 (stereo not drawn) [Compound 21]
10: activity level (fresh weight growth control rate), Setaria viridis (Setaria viridis; 60 g a.i./ha) | activity level (fresh weight growth control rate), Digitaria sanguinalis (Digitaria sanguinalis; 60 g a.i./ha) | activity level (fresh weight growth control rate), Veronica polita (Veronica polita; 60 g a.i./ha) | activity level (fresh weight growth control rate), Amaranthus retroflexus (Amaranthus retroflexus; 60 g a.i./ha) | activity level (fresh weight growth control rate), Abutilon theophrasti (Abutilon theophrasti; 60 g a.i./ha) | activity level (fresh weight growth control rate), Echinochloa crus-galli (Echinochloa crus-galli; 60 g a.i./ha)

CCOC(=O)C1ON=C(c2cc(-c3ccc(C(F)(F)F)cn3)c(F)cc2Cl)O1 (stereo not drawn) [Compound 23]
10: activity level (fresh weight growth control rate), Setaria viridis (Setaria viridis; 60 g a.i./ha) | activity level (fresh weight growth control rate), Digitaria sanguinalis (Digitaria sanguinalis; 60 g a.i./ha) | activity level (fresh weight growth control rate), Veronica polita (Veronica polita; 60 g a.i./ha) | activity level (fresh weight growth control rate), Amaranthus retroflexus (Amaranthus retroflexus; 60 g a.i./ha) | activity level (fresh weight growth control rate), Abutilon theophrasti (Abutilon theophrasti; 60 g a.i./ha) | activity level (fresh weight growth control rate), Echinochloa crus-galli (Echinochloa crus-galli; 60 g a.i./ha)

CCOC(=O)C1ON=C(c2cc(-c3ncc(C(F)(F)F)cc3Cl)c(F)cc2Br)O1 (stereo not drawn) [Compound 25]
10: activity level (fresh weight growth control rate), Setaria viridis (Setaria viridis; 60 g a.i./ha) | activity level (fresh weight growth control rate), Digitaria sanguinalis (Digitaria sanguinalis; 60 g a.i./ha) | activity level (fresh weight growth control rate), Veronica polita (Veronica polita; 60 g a.i./ha) | activity level (fresh weight growth control rate), Amaranthus retroflexus (Amaranthus retroflexus; 60 g a.i./ha) | activity level (fresh weight growth control rate), Abutilon theophrasti (Abutilon theophrasti; 60 g a.i./ha) | activity level (fresh weight growth control rate), Echinochloa crus-galli (Echinochloa crus-galli; 60 g a.i./ha)

Source: US20250206727A1, “HETEROCYCLIC SUBSTITUTED AROMATIC COMPOUND, PREPARATION METHOD THEREFOR, HERBICIDAL COMPOSITION AND APPLICATION” (QINGDAO KINGAGROOT CHEMICAL COMPOUND CO., LTD., priority 2022, published 2025)
